# Laboratory results taken from patent US6852734B2, “Indole derivatives exhibiting chymase-inhibitory activities and process for preparation thereof” (Meiji Seika Kaisha, Ltd., priority 2000, dated 2005).
# Target: T1, active-type human chymase (Homo sapiens, UniProt P23946)
# T1 construct: made in house
# T1 sequence (P23946 22-247): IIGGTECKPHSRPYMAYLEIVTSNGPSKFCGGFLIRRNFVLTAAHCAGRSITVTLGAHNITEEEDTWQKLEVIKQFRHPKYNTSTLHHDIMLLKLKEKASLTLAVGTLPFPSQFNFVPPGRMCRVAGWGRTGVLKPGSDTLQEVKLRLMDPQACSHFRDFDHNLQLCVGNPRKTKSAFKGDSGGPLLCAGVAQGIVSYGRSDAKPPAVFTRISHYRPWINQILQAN
# Experiment: Chymase inhibitory activity (Test Example 1; hydrolysis of succinyl-alanyl-histidyl-prolyl-phenylalanyl-p-nitroanilide, absorbance at 405 nm)
# Format: biochemical
# Settings: recombinant active-type human chymase, 0.5 mM p-nitroanilide substrate, Buffer A pH 8.0, room temperature, 5 minutes; read-out: Chymase inhibitory activity IC50 (molar concentration)
# Description: • (a) The preparation of the enzyme chymase was carried out as follows. That is, a recombinant pro-type human chymase to be used had been prepared in accordance with the method of Urata et al's report [“J. Biol. Chem.”, Vol.266, p.17173 (1991)]. Further, the chymase product as preliminarily purified was activated in accordance with the method of Murakami et al's report [“J. Biol. Chem.”, Vol.270, p.2218 (1991)]. The resulting activated chymase product was purified with heparin Sepharose to afford an active-type human chymase. • (b) To 50 μl of Buffer A (comprising 0.5-3.0M NaCl and 50 mM tris-HCl, pH 8.0) containing 1-5 ng of the active-type human chymase as obtained by the above-mentioned methods, was added 2 μl of a solution in […] which contained an indole derivative of this invention as the substance to be tested. Then, to the resultant mixture, there was added 50 μl of Buffer A containing 0.5 mM of succinyl-alanyl-histidyl-prolyl-phenylalanyl-p-nitroanilide (a product of Backem Co.) as the substrate. The resulting reaction mixture was incubated at room temperature for 5 minutes. The chymase inhibitory activity was assessed by measuring the changes in the absorbance of a light at 405 nm of the resulting reaction solution with the passage of time. The chymase inhibitory activity of the indole derivatives tested of this invention was evaluated in term of IC50 values (in molar concentration, M).
# The indole derivatives of this invention as tested in this Example are the compounds of Compound No. 003, 021, 026, 027, 030, 076 and 078 shown in Table 1 above.
row,Compound,IC50 [nM]
1,Cn1c(=O)c(C(c2cccc(Br)c2)c2[nH]c3ccccc3c2CCNS(=O)(=O)c2ccc3ccccc3c2)c(O)c2ccccc21 (stereo not shown) [Compound No. 026],0.439
2,CC(=O)NCCc1c(C(c2ccccc2OC(C)=O)c2c(O)c3ccccc3n(C)c2=O)[nH]c2ccccc12 (stereo not shown) [Compound No. 078],1.86
3,Cn1c(=O)c(C(c2ccc(OC(F)(F)F)cc2)c2[nH]c3ccccc3c2CCNS(=O)(=O)c2ccc3ccccc3c2)c(O)c2ccccc21 (stereo not shown) [Compound No. 027],5.11
4,Cn1c(=O)c(C(c2cccc(F)c2)c2[nH]c3ccccc3c2CCNC(=O)c2cc(C(F)(F)F)cc(C(F)(F)F)c2)c(O)c2ccccc21 (stereo not shown) [compound 003],2.64
5,Cn1c(=O)c(C(c2ccc(OC(F)(F)F)cc2)c2[nH]c3ccccc3c2CCOC(=O)c2ccccc2)c(O)c2ccccc21 (stereo not shown) [Compound No. 030],0.587
6,COc1ccc(C(=O)OCCc2c(C(c3ccc(C(F)(F)F)cc3)c3c(O)c4ccccc4n(C)c3=O)[nH]c3ccccc23)cc1OC (stereo not shown) [Compound No. 021],1.4
7,CC(=O)OCCc1c(C(c2cccc(Br)c2)c2c(O)c3ncsc3n(C)c2=O)[nH]c2ccccc12 (stereo not shown) [Compound No. 076],0.893

# Target: T2, chymase (Homo sapiens, UniProt P23946)
# T2 sequence (P23946 22-247): T1 sequence (P23946 22-247)
# Experiment: not given
# Settings: confirmed in PCT/JP99/06738 (WO 00/32587); cited from earlier work
row,Compound,chymase inhibitory activity (in words)
1,CC(=O)NCCc1c(C(c2ccc(O)cc2)c2c(O)c3ccccc3n(C)c2=O)[nH]c2ccccc12 (stereo not shown) [SF2809-II],has a chymase inhibitory activity
2,Cn1c(=O)c(C(c2ccccc2)c2[nH]c3ccccc3c2CCO)c(O)c2ccccc21 (stereo not shown) [SF2809-VI],has a chymase inhibitory activity
3,Cn1c(=O)c(Cc2[nH]c3ccccc3c2CCO)c(O)c2ccccc21 [SF2809-III],has a chymase inhibitory activity
4,CC(=O)NCCc1c(Cc2c(O)c3ccccc3n(C)c2=O)[nH]c2ccccc12 [SF2809-I],has a chymase inhibitory activity
5,CC(=O)NCCc1c(C(c2ccccc2)c2c(O)c3ccccc3n(C)c2=O)[nH]c2ccccc12 (stereo not shown) [SF2809-V],has a chymase inhibitory activity
6,Cn1c(=O)c(C(c2ccc(O)cc2)c2[nH]c3ccccc3c2CCO)c(O)c2ccccc21 (stereo not shown) [SF2809-IV],has a chymase inhibitory activity
